Test system: patients with advanced cancer
Assay: Phase I clinical trial, daily versus pulsatile dosing of (−)-gossypol: adverse events graded by NCI-CTCAE v3 (Daily N = 38, BID × 3 d N = 21, Weekly N = 12)
Format: in vivo, human
Description: A phase I clinical trial was carried out to compare the maximum tolerated dose and safety of daily (i.e., continuous) versus pulsatile (i.e., intermittent) dosing of (−)-gossypol in patients with advanced cancer. A secondary objective of this study was to identify any anti-tumor activity of (−)-gossypol. Patients were treated with increasing doses of (−)-gossypol according to the following dosing schedules: “Daily” dosing: 5 to 60 mg/day of (−)-gossypol on 21 days per 28 day cycle; “BID×3d” dosing: 30 to 80 mg BID of (−)-gossypol on 3 consecutive days (e.g., Monday-Tuesday-Wednesday) repeated every other week per 28 day cycle; and “Weekly” dosing: 80 to 200 mg of (−)-gossypol once weekly per 28 day cycle. Adverse events (AEs) were graded by NCI-CTCAE v3.

## Cc1cc2c(C(C)C)c(O)c(O)c(C=O)c2c(O)c1-c1c(C)cc2c(C(C)C)c(O)c(O)c(C=O)c2c1O [(−)-gossypol]
Daily, Grade ¾
  ALT increase: 5 (13) N (%)
  AST increase: 6 (13) N (%)
  Abdominal discomfort: 2 (5) N (%)
  Abdominal distention: 0 N (%)
  Abdominal pain: 1 (3) N (%)
  Albumin decreased: 0 N (%)
  Alkaline phosphatase increase: 0 N (%)
  Anorexia or decreased appetite: 1 (3) N (%)
  Any AE: 37 (98) N (%)
  Back pain: 0 N (%)
  Constipation: 0 N (%)
  Cough: 0 N (%)
  Creatinine increased: 0 N (%)
  Creatinine phosphokinase increase: 0 N (%)
  Dehydration: 2 (5) N (%)
  Diarrhea: 5 (13) N (%)
  Dizziness: 0 N (%)
  Dry mouth: 0 N (%)
  Dysgeusia: 0 N (%)
  Dyspnea: 3 (8) N (%)
  Fatigue/Asthenia: 4 (11) N (%)
  Flatulence: 0 N (%)
  Headache: 0 N (%)
  Hepatic encephalopathy: 0 N (%)
  Hyperbilirubinaemia: 1 (3) N (%)
  Hyperkalemia: 0 N (%)
  Hypocalcemia: 2 (5) N (%)
  Hypokalemia: 3 (8) N (%)
  Hyponatremia: 1 (3) N (%)
  Infection: 1 (3) N (%)
  Insomnia: 0 N (%)
  Mental status changes: 1 (3) N (%)
  Nausea: 5 (13) N (%)
  Pain: 0 N (%)
  Pancreatitis: 0 N (%)
  Peripheral edema: 0 N (%)
  Pleural Effusion: 2 (5) N (%)
  Pneumatosis intestinalis: 0 N (%)
  Pneumonia: 1 (3) N (%)
  Proteinurea: 0 N (%)
  Pyrexia: 1 (3) N (%)
  Renal Failure: 0 N (%)
  Sinusitis: 0 N (%)
  Small intestinal obstruction (ileus): 4 (11) N (%)
  Troponin I or T increased: 1 (3) N (%)
  Urinary Tract Infection: 0 N (%)
  Vomiting: 7 (18) N (%)
  Weight decreased: 0 N (%)
  White blood cells increased: 0 N (%)
Weekly, Grade ½
  ALT increase: 3 (25) N (%)
  AST increase: 1 (8) N (%)
  Abdominal discomfort: 0 N (%)
  Abdominal distention: 3 (25) N (%)
  Abdominal pain: 2 (17) N (%)
  Albumin decreased: 0 N (%)
  Alkaline phosphatase increase: 2 (17) N (%)
  Anorexia or decreased appetite: 7 (58) N (%)
  Any AE: 10 (83) N (%)
  Back pain: 1 (8) N (%)
  Constipation: 4 (33) N (%)
  Cough: 0 N (%)
  Creatinine increased: 2 (17) N (%)
  Creatinine phosphokinase increase: 0 N (%)
  Dehydration: 2 (17) N (%)
  Diarrhea: 0 N (%)
  Dizziness: 2 (17) N (%)
  Dry mouth: 1 (8) N (%)
  Dysgeusia: 2 (17) N (%)
  Dyspnea: 1 (8) N (%)
  Fatigue/Asthenia: 8 (67) N (%)
  Flatulence: 1 (8) N (%)
  Headache: 1 (8) N (%)
  Hepatic encephalopathy: 0 N (%)
  Hyperbilirubinaemia: 2 (17) N (%)
  Hyperkalemia: 0 N (%)
  Hypocalcemia: 2 (17) N (%)
  Hypokalemia: 2 (17) N (%)
  Hyponatremia: 0 N (%)
  Infection: 0 N (%)
  Insomnia: 3 (25) N (%)
  Mental status changes: 0 N (%)
  Nausea: 2 (17) N (%)
  Pain: 0 N (%)
  Pancreatitis: 0 N (%)
  Peripheral edema: 3 (25) N (%)
  Pleural Effusion: 0 N (%)
  Pneumatosis intestinalis: 0 N (%)
  Pneumonia: 0 N (%)
  Proteinurea: 2 (17) N (%)
  Pyrexia: 0 N (%)
  Renal Failure: 1 (8) N (%)
  Sinusitis: 0 N (%)
  Small intestinal obstruction (ileus): 0 N (%)
  Troponin I or T increased: 1 (8) N (%)
  Urinary Tract Infection: 2 (17) N (%)
  Vomiting: 0 N (%)
  Weight decreased: 2 (17) N (%)
  White blood cells increased: 0 N (%)
Weekly, Grade ¾
  ALT increase: 1 (8) N (%)
  AST increase: 4 (33) N (%)
  Abdominal discomfort: 0 N (%)
  Abdominal distention: 0 N (%)
  Abdominal pain: 0 N (%)
  Albumin decreased: 1 (8) N (%)
  Alkaline phosphatase increase: 1 (8) N (%)
  Anorexia or decreased appetite: 0 N (%)
  Any AE: 10 (48) N (%)
  Back pain: 0 N (%)
  Constipation: 0 N (%)
  Cough: 0 N (%)
  Creatinine increased: 1 (8) N (%)
  Creatinine phosphokinase increase: 1 (8) N (%)
  Dehydration: 2 (17) N (%)
  Diarrhea: 0 N (%)
  Dizziness: 0 N (%)
  Dry mouth: 0 N (%)
  Dysgeusia: 0 N (%)
  Dyspnea: 1 (8) N (%)
  Fatigue/Asthenia: 1 (8) N (%)
  Flatulence: 0 N (%)
  Headache: 0 N (%)
  Hepatic encephalopathy: 1 (8) N (%)
  Hyperbilirubinaemia: 2 (17) N (%)
  Hyperkalemia: 0 N (%)
  Hypocalcemia: 0 N (%)
  Hypokalemia: 1 (8) N (%)
  Hyponatremia: 0 N (%)
  Infection: 1 (8) N (%)
  Insomnia: 0 N (%)
  Mental status changes: 1 (8) N (%)
  Nausea: 0 N (%)
  Pain: 0 N (%)
  Pancreatitis: 0 N (%)
  Peripheral edema: 0 N (%)
  Pleural Effusion: 1 (8) N (%)
  Pneumatosis intestinalis: 1 (8) N (%)
  Pneumonia: 0 N (%)
  Proteinurea: 0 N (%)
  Pyrexia: 1 (8) N (%)
  Renal Failure: 0 N (%)
  Sinusitis: 0 N (%)
  Small intestinal obstruction (ileus): 2 (8) N (%)
  Troponin I or T increased: 2 (17) N (%)
  Urinary Tract Infection: 0 N (%)
  Vomiting: 0 N (%)
  Weight decreased: 0 N (%)
  White blood cells increased: 0 N (%)
Pulsatile dosing (BID×3d and Weekly) as compared to continuous daily dosing
  Percentage of AEs, particularly Grade 3/4 AEs: reduced percentage of AEs
